# ± gives the expanded uncertainty stated by the source.
# Experiment: activity coefficient (dimensionless); of the first substance listed, at infinite dilution; xn = mol fraction of the nth substance listed
# Conditions: Liquid, Chromatography, x1 = 0
smiles,measurement,setting,value
"Cc1ccc(C)cc1 [1,4-dimethylbenzene] + CN(C)c1cc[n+](COCCCOC[n+]2ccc(N(C)C)cc2)cc1.O=S(=O)([N-]S(=O)(=O)C(F)(F)F)C(F)(F)F.O=S(=O)([N-]S(=O)(=O)C(F)(F)F)C(F)(F)F",activity coefficient,323.15 K,1.34 ± 0.09
same,activity coefficient,333.15 K,1.36 ± 0.09
same,activity coefficient,343.15 K,1.37 ± 0.09
"Cc1ccc(C)cc1 [1,4-dimethylbenzene] + Cn1cc[n+](COCCCOC[n+]2ccn(C)c2)c1.N#C[N-]C#N.N#C[N-]C#N",activity coefficient,323.15 K,10.5 ± 0.72
same,activity coefficient,333.15 K,10.2 ± 0.69
same,activity coefficient,343.15 K,9.96 ± 0.68
"Cc1ccc(C)cc1 [1,4-dimethylbenzene] + Cn1cc[n+](COCCCOC[n+]2ccn(C)c2)c1.O=S(=O)([N-]S(=O)(=O)C(F)(F)F)C(F)(F)F.O=S(=O)([N-]S(=O)(=O)C(F)(F)F)C(F)(F)F",activity coefficient,323.15 K,2.39 ± 0.16
same,activity coefficient,333.15 K,2.41 ± 0.16
same,activity coefficient,343.15 K,2.34 ± 0.16
"Cc1ccc(C)cc1 [1,4-dimethylbenzene] + N#C[N-]C#N.N#C[N-]C#N.c1ccc(Cn2cc[n+](COCCCOC[n+]3ccn(Cc4ccccc4)c3)c2)cc1",activity coefficient,323.15 K,8.84 ± 0.6
same,activity coefficient,333.15 K,8.42 ± 0.57
same,activity coefficient,343.15 K,8.16 ± 0.56
"C1COCCO1 [1,4-dioxane] + CCCCCCCCn1cc[n+](COCCC)c1C.N#C[N-]C#N",activity coefficient,323.15 K,0.77 ± 0.05
same,activity coefficient,333.15 K,0.78 ± 0.05
same,activity coefficient,343.15 K,0.78 ± 0.05
"C1COCCO1 [1,4-dioxane] + CCCCCCCCn1cc[n+](COCCC)c1C.O=S(=O)([N-]S(=O)(=O)C(F)(F)F)C(F)(F)F",activity coefficient,323.15 K,0.5 ± 0.04
same,activity coefficient,333.15 K,0.49 ± 0.04
same,activity coefficient,343.15 K,0.49 ± 0.04
"C1COCCO1 [1,4-dioxane] + CCCCCCCCn1cc[n+](COCCCOC[n+]2ccn(CCCCCCCC)c2C)c1C.N#C[N-]C#N.N#C[N-]C#N",activity coefficient,323.15 K,0.55 ± 0.04
same,activity coefficient,333.15 K,0.55 ± 0.04
same,activity coefficient,343.15 K,0.55 ± 0.04
"C1COCCO1 [1,4-dioxane] + CCCCCCCCn1cc[n+](COCCCOC[n+]2ccn(CCCCCCCC)c2C)c1C.O=S(=O)([N-]S(=O)(=O)C(F)(F)F)C(F)(F)F.O=S(=O)([N-]S(=O)(=O)C(F)(F)F)C(F)(F)F",activity coefficient,323.15 K,0.28 ± 0.03
same,activity coefficient,333.15 K,0.27 ± 0.03
same,activity coefficient,343.15 K,0.28 ± 0.03
"C1COCCO1 [1,4-dioxane] + CCCOC[n+]1ccc(N(C)C)cc1.O=S(=O)([N-]S(=O)(=O)C(F)(F)F)C(F)(F)F",activity coefficient,323.15 K,0.56 ± 0.04
same,activity coefficient,333.15 K,0.59 ± 0.04
same,activity coefficient,343.15 K,0.59 ± 0.04
"C1COCCO1 [1,4-dioxane] + CCCOC[n+]1ccn(C)c1.F[B-](F)(F)F",activity coefficient,323.15 K,1.39 ± 0.09
same,activity coefficient,333.15 K,1.42 ± 0.09
same,activity coefficient,343.15 K,1.46 ± 0.1
"C1COCCO1 [1,4-dioxane] + CCCOC[n+]1ccn(C)c1.N#C[N-]C#N",activity coefficient,323.15 K,1.06 ± 0.07
same,activity coefficient,333.15 K,1.09 ± 0.07
same,activity coefficient,343.15 K,1.12 ± 0.07
"C1COCCO1 [1,4-dioxane] + CCCOC[n+]1ccn(C)c1.O=S(=O)([N-]S(=O)(=O)C(F)(F)F)C(F)(F)F",activity coefficient,323.15 K,0.57 ± 0.04
same,activity coefficient,333.15 K,0.57 ± 0.04
same,activity coefficient,343.15 K,0.58 ± 0.04
"C1COCCO1 [1,4-dioxane] + CCCOC[n+]1ccn(Cc2ccccc2)c1.F[B-](F)(F)F",activity coefficient,323.15 K,0.95 ± 0.06
same,activity coefficient,333.15 K,0.95 ± 0.06
same,activity coefficient,343.15 K,0.96 ± 0.06
"C1COCCO1 [1,4-dioxane] + CCCOC[n+]1ccn(Cc2ccccc2)c1.N#C[N-]C#N",activity coefficient,323.15 K,0.84 ± 0.05
same,activity coefficient,333.15 K,0.88 ± 0.06
same,activity coefficient,343.15 K,0.89 ± 0.06
"C1COCCO1 [1,4-dioxane] + CCCOC[n+]1ccn(Cc2ccccc2)c1.O=S(=O)([N-]S(=O)(=O)C(F)(F)F)C(F)(F)F",activity coefficient,323.15 K,0.4 ± 0.03
same,activity coefficient,333.15 K,0.36 ± 0.03
same,activity coefficient,343.15 K,0.35 ± 0.03
"C1COCCO1 [1,4-dioxane] + CN(C)c1cc[n+](COCCCOC[n+]2ccc(N(C)C)cc2)cc1.O=S(=O)([N-]S(=O)(=O)C(F)(F)F)C(F)(F)F.O=S(=O)([N-]S(=O)(=O)C(F)(F)F)C(F)(F)F",activity coefficient,323.15 K,0.44 ± 0.04
same,activity coefficient,333.15 K,0.45 ± 0.04
same,activity coefficient,343.15 K,0.45 ± 0.04
"C1COCCO1 [1,4-dioxane] + Cn1cc[n+](COCCCOC[n+]2ccn(C)c2)c1.N#C[N-]C#N.N#C[N-]C#N",activity coefficient,323.15 K,1.09 ± 0.07
same,activity coefficient,333.15 K,1.11 ± 0.07
same,activity coefficient,343.15 K,1.13 ± 0.07
"C1COCCO1 [1,4-dioxane] + Cn1cc[n+](COCCCOC[n+]2ccn(C)c2)c1.O=S(=O)([N-]S(=O)(=O)C(F)(F)F)C(F)(F)F.O=S(=O)([N-]S(=O)(=O)C(F)(F)F)C(F)(F)F",activity coefficient,323.15 K,0.37 ± 0.03
same,activity coefficient,333.15 K,0.39 ± 0.03
same,activity coefficient,343.15 K,0.39 ± 0.03
"C1COCCO1 [1,4-dioxane] + N#C[N-]C#N.N#C[N-]C#N.c1ccc(Cn2cc[n+](COCCCOC[n+]3ccn(Cc4ccccc4)c3)c2)cc1",activity coefficient,323.15 K,1.32 ± 0.09
same,activity coefficient,333.15 K,1.32 ± 0.09
same,activity coefficient,343.15 K,1.35 ± 0.09
C#CCCCCC [1-heptyne] + CCCCCCCCn1cc[n+](COCCC)c1C.N#C[N-]C#N,activity coefficient,323.15 K,2.11 ± 0.14
same,activity coefficient,333.15 K,2.09 ± 0.14
C#CCCCCC [1-heptyne] + CCCCCCCCn1cc[n+](COCCC)c1C.O=S(=O)([N-]S(=O)(=O)C(F)(F)F)C(F)(F)F,activity coefficient,323.15 K,1.68 ± 0.11
same,activity coefficient,333.15 K,1.64 ± 0.11
same,activity coefficient,343.15 K,1.62 ± 0.11
C#CCCCCC [1-heptyne] + CCCCCCCCn1cc[n+](COCCCOC[n+]2ccn(CCCCCCCC)c2C)c1C.N#C[N-]C#N.N#C[N-]C#N,activity coefficient,323.15 K,2.1 ± 0.14
same,activity coefficient,333.15 K,2.12 ± 0.14
same,activity coefficient,343.15 K,2.15 ± 0.15
C#CCCCCC [1-heptyne] + CCCCCCCCn1cc[n+](COCCCOC[n+]2ccn(CCCCCCCC)c2C)c1C.O=S(=O)([N-]S(=O)(=O)C(F)(F)F)C(F)(F)F.O=S(=O)([N-]S(=O)(=O)C(F)(F)F)C(F)(F)F,activity coefficient,323.15 K,1.4 ± 0.09
same,activity coefficient,333.15 K,1.4 ± 0.09
same,activity coefficient,343.15 K,1.41 ± 0.09
C#CCCCCC [1-heptyne] + CCCOC[n+]1ccc(N(C)C)cc1.O=S(=O)([N-]S(=O)(=O)C(F)(F)F)C(F)(F)F,activity coefficient,323.15 K,3.33 ± 0.23
same,activity coefficient,333.15 K,3.35 ± 0.23
same,activity coefficient,343.15 K,3.34 ± 0.23
C#CCCCCC [1-heptyne] + CCCOC[n+]1ccn(C)c1.F[B-](F)(F)F,activity coefficient,323.15 K,16.6 ± 1.1
same,activity coefficient,333.15 K,16.7 ± 1.1
same,activity coefficient,343.15 K,16.7 ± 1.1
C#CCCCCC [1-heptyne] + CCCOC[n+]1ccn(C)c1.N#C[N-]C#N,activity coefficient,323.15 K,10.9 ± 0.74
same,activity coefficient,333.15 K,10.9 ± 0.74
same,activity coefficient,343.15 K,10.7 ± 0.73
C#CCCCCC [1-heptyne] + CCCOC[n+]1ccn(Cc2ccccc2)c1.F[B-](F)(F)F,activity coefficient,323.15 K,8.53 ± 0.58
same,activity coefficient,333.15 K,8.35 ± 0.57
same,activity coefficient,343.15 K,8.28 ± 0.56
C#CCCCCC [1-heptyne] + CCCOC[n+]1ccn(Cc2ccccc2)c1.N#C[N-]C#N,activity coefficient,323.15 K,6.34 ± 0.43
same,activity coefficient,333.15 K,6.08 ± 0.41
C#CCCCCC [1-heptyne] + CCCOC[n+]1ccn(Cc2ccccc2)c1.O=S(=O)([N-]S(=O)(=O)C(F)(F)F)C(F)(F)F,activity coefficient,323.15 K,2.82 ± 0.19
same,activity coefficient,333.15 K,2.42 ± 0.16
same,activity coefficient,343.15 K,2.25 ± 0.15
C#CCCCCC [1-heptyne] + CN(C)c1cc[n+](COCCCOC[n+]2ccc(N(C)C)cc2)cc1.O=S(=O)([N-]S(=O)(=O)C(F)(F)F)C(F)(F)F.O=S(=O)([N-]S(=O)(=O)C(F)(F)F)C(F)(F)F,activity coefficient,323.15 K,4.2 ± 0.29
same,activity coefficient,333.15 K,4.09 ± 0.28
same,activity coefficient,343.15 K,4.01 ± 0.27
C#CCCCCC [1-heptyne] + Cn1cc[n+](COCCCOC[n+]2ccn(C)c2)c1.N#C[N-]C#N.N#C[N-]C#N,activity coefficient,323.15 K,27.6 ± 1.9
same,activity coefficient,333.15 K,26.2 ± 1.8
same,activity coefficient,343.15 K,26.1 ± 1.8

# — the NIST ThermoML archive (doi:10.1016/j.fluid.2014.11.020)
